Like-named read-outs stand apart in the source and are kept apart here.
Experiments:
Assay type in all cases: cell-based
Phytophthora infestans = conditions: 0.063 ppm, single compound; 7 days after inoculation, 18° C.
Leptosphaeria nodorum = assay: Microtest: activity against the wheat leaf spot pathogen Leptosphaeria nodorum (MTP, absorption at 405 nm); conditions: 0.004 ppm, single compound; 7 days after inoculation, 18° C.
Pyricularia oryzae = conditions: single compound, 7 days after inoculation, 18° C.

| SMILES | Observed efficacy (Phytophthora infestans) [%] | Observed efficacy (Leptosphaeria nodorum) [%] | Observed efficacy (Pyricularia oryzae; 0.00025 ppm) [%] | Observed efficacy (Pyricularia oryzae; 0.016 ppm) [%] |
| --- | --- | --- | --- | --- |
| CC(O)(Cn1cncn1)c1ccc(Oc2ccc(Cl)cc2)cc1C(F)(F)F (stereo not drawn) [II-6, 2-[4-(4-chlorophenoxy)-2-(trifluoromethyl)phenyl]-1-(1,2,4-triazol-1-yl)propan-2-ol] | 7 | 7 | – | – |
| CNC(=O)C(=N/OC)/C(C)=C\COc1ccn(-c2ccc(Cl)cc2F)n1 [I-13, (Z,2E)-5-[1-(4-chloro-2-fluoro-phenyl)pyrazol-3-yl]oxy-2-methoxyimino-N,3-dimethyl-pent-3-enamide] | 4 | 21 | 7 | – |
| OC(Cn1cncn1)(c1ccc(Oc2ccc(Cl)cc2)cc1C(F)(F)F)C1CC1 (stereo not drawn) [II-2, 1-[4-(4-chlorophenoxy)-2-(trifluoromethyl)phenyl]-1-cyclopropyl-2-(1,2,4-triazol-1-yl)ethanol] | – | – | – | 6 |

Source: patent US9763448B2, “Fungicidal mixtures I comprising strobilurin-type fungicides” (BASF SE, priority 2013, dated 2017)
